Results taken from PMC11087268, “A folate inhibitor exploits metabolic differences in Pseudomonas aeruginosa for narrow-spectrum targeting” (Nature Microbiology, 2024).
In brackets after ≈: the same amount, converted by molar mass. Several values for one entry are separate records, joined by “and”; a condition that tells them apart may be missing. Equal entries are not always repeated.

Assays:
[1] = tested on: Escherichia coli ATCC BAA-198; test: MIC (WuXi, Mueller–Hinton broth) against E. coli ATCC BAA-198; format: cell-based; settings: ATCCBAA198
Description: Bacterial colonies (4–8) of strains of interest were vortexed in saline and adjusted to an OD600 of 0.2. Strains were diluted 1:200 into CAMHB media in 96-well plates. Antibiotics were serially diluted 1:3 in DMSO, and 1 μl of each dilution was added to bacteria. The plates were incubated for 18–20 h at 37 °C before observation.

[2] = tested on: P. aeruginosa PA14; test: In vivo PA14 murine thigh infection; settings: neutropenic CD-1 mice, 24 h post infection; fluorofolin 25 mg kg^−1 subcutaneous and/or SMX 100 mg kg^−1 intraperitoneal at 1 and 12 h; one value per mouse
From the text: For P. aeruginosa thigh infection model and maximum tolerated dose (MTD) studies, care and handling of female 5–6-week-old CD-1 conformed to Institutional Animal Care and Use Committee (IACUC) policies as carried out at the University of North Texas Health Science Center (Fort Worth, Texas) under UNTHSC IACUC-approved protocol nos. IACUC-2021-0003 and IACUC-2020-0039. Rodents were fed either base chow (Envigo) or base diet supplemented with 1.8 g kg^−1 thymidine (Sigma T9250) starting at 2 days before infection. All procedures were conducted in accordance with the UNTHSC IACUC-approved protocol. Animals were housed in rooms undergoing 10–15 air changes per hour. Air provided to the animal rooms was controlled for temperature and humidity and is fully monitored 24 h a day. Air pressure was balanced according to room use. Lighting was controlled in individual rooms by automatic timers with a standard 12 h on, 12 h off cycle.
Female 5–6-week-old CD-1 mice were rendered neutropenic by intraperitoneal cyclophosphamide treatment (Cytoxan) before this study. On day 0, mice were infected intramuscularly with 5.33 log c.f.u. per thigh PA14. Mice were treated subcutaneously with fluorofolin at 1 and 12 h post infection. For co-treatment, mice were treated with SMX intraperitoneally at 1 and 12 h post infection. […] In vivo efficacy was evaluated by the UNTHSC.

[3] = tested on: Acinetobacter baumannii BAA-125; test: MIC against A. baumannii BAA-125 in LB broth; format: cell-based; settings: BAA125, 16 h, 37 °C, OD600
Description: (§1) Overnight cultures were diluted 1:150 in LB broth and added to a 96-well plate. Antibiotics were serially diluted 1:2 and added to columns of the 96-well plate and grown at 37 °C with continuous shaking. Cell growth was measured using optical density at 600 nm (OD600). MIC assays were performed in either BioTek Synergy HT or Tecan InfiniteM200 Pro microplate readers.

[4] = tested on: P. aeruginosa PA14 oprM transposon mutant; test: microbe, parasite or virus in culture; format: cell-based; settings: Pseudomonas aeruginosa
Description: as §1
(§2) P. aeruginosa PA14 transposon mutants were generated by the Ausubel Lab (https://pa14.mgh.harvard.edu/cgi-bin/pa14/home.cgi)[67]. The MICs of fluorofolin and TMP against strains with disrupted MexA, MexB and OprM were determined as above and compared to the parental strain. As transposon mutants in MexB were represented twice in this collection, the MIC was confirmed across both mutant strains.

[5] = tested on: P. aeruginosa PA14 mexA transposon mutant; test: microbe, parasite or virus in culture; format: cell-based; settings: Pseudomonas aeruginosa
Description: as §1, §2

[6] = tested on: P. aeruginosa PA14 mexB transposon mutant; test: microbe, parasite or virus in culture; format: cell-based; settings: Pseudomonas aeruginosa
Description: as §1, §2

[7] = target: T1, E. coli DHFR (FolA) (Escherichia coli, UniProt P0ABQ4); test: In vitro DHFR activity, purified E. coli FolA; format: biochemical; settings: for fractional initial velocity: E. coli FolA
T1 construct: purchased Genscript
Description: As described previously, purified E. coli dihydrofolate reductase (FolA) was purified by Genscript. Enzyme activity was measured on a QuantaMaster 40 spectrophotometer (Photon Technology) using the DHFR reductase assay kit with slight modifications. E. coli FolA was diluted 1:1,000 into 1× assay buffer. Of this mixture, 100 μl with or without compound was added to a BRAND UV cuvette (Sigma-Aldrich BR759200) and sample transmitted light intensity at 340 nm was measured for 100 s at 1 kHz sampling. Readings were averaged for every 1 Hz and the activity of each sample was calculated from the slope (β) of a linear regression of the log-transformed intensity measurements on MATLAB R2022B. To account for enzyme stability, measurements were normalized to a standard condition (60 μM NADPH and 100 μM DHF) measured immediately before the sample of interest. The relative activity was calculated as (βsample − βnoEnzyme)/(βstandard − βnoEnzyme).

[8] = tested on: E. cloacae; test: Growth with or without TMI supplementation and fluorofolin, E. cloacae; format: cell-based, Enterobacter cloacae; settings: fluorofolin 2X MIC
Description: Where listed, growth media were prepared according manufacturer recommendations: LB broth and LB broth supplemented with 0.3 mM thymine (BD Biosciences 244610, Alfa Aesar A15879), 0.3 mM methionine (Sigma-Aldrich M9625), 0.3 mM inosine (EMD Millipore 4060), cation-adjusted Mueller–Hinton II broth (CAMHB) (BD 212322) or 0.3 mM thymidine (Sigma-Aldrich T1895), Gutnick minimal media (1.0 g l^−1 K2SO4, 13.5 g l^−1 K2HPO4, 4.7 g l^−1 KH2PO4, 0.1 g l^−1 MgSO4·7H2O, 10 mM NH4Cl as a nitrogen source and 0.4% w/v glucose as a carbon source)[65].
Extended Data Fig. 3 TMI supplementation can also rescue other species from fluorofolin DHFR inhibition. […] (f) P. aeruginosa PA14 or E. coli lptd4213 treated with fluorofolin 50 μg/mL in the presence or absence of 0.3 mM thymidine. (g) E. coli lptd4213 treated with fluorofolin 50 μg/mL and SMX (78.1 μg/mL) in the presence or absence of 0.3 mM thymidine or 0.3 mM TMI supplementation, Curves represent average optical at 600 nm (OD600) of 2 biological replicates. Means are shown. Source data

[9] = tested on: Staphylococcus aureus USA300; test: MIC against S. aureus USA300 in LB broth; format: cell-based; settings: USA300, 16 h
Description: as §1

[10] = tested on: Escherichia coli NCM-3722; test: MIC against E. coli NCM-3722 in LB broth; format: cell-based; settings: NCM3722, 16 h, 37 °C, OD600
Description: as §1

T1 sequence (P0ABQ4 whole entry): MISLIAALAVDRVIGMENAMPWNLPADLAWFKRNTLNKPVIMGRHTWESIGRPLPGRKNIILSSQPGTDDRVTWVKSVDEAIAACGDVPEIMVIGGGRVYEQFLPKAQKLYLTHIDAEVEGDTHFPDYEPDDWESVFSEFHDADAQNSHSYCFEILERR

Nc1nc(N)c2c(ccc3c2ccn3Cc2ccnc(F)c2)n1 [fluorofolin]
MIC [1]: 7.11 µg/mL (≈ 23.1 µM) | PA14 load in thigh [2]: 9.3 log 10(CFU/ mouse) and 9.24 log 10(CFU/ mouse) and 9.05 log 10(CFU/ mouse) and 9.1 log 10(CFU/ mouse) | MIC [3]: 31.2 µg/mL | MIC [4]: 1.5 µg/mL | MIC [5]: 1.5 µg/mL | MIC [6]: 1.5 µg/mL | IC50 [7]: 2.5 ± 1.1 nM | fractional initial velocity ([7]; Fluorofolin 9.91e-5 uM): 1.007 | fractional initial velocity ([7]; Fluorofolin 0.000507393 uM): 1.009 | fractional initial velocity ([7]; Fluorofolin 0.000792664 uM): 0.7937 | fractional initial velocity ([7]; Fluorofolin 0.00101479 uM): 0.7819 | fractional initial velocity ([7]; Fluorofolin 0.00152192 uM): 0.9341 | fractional initial velocity ([7]; Fluorofolin 0.00158533 uM): 0.5604 | fractional initial velocity ([7]; Fluorofolin 0.00202957 uM): 0.702 | fractional initial velocity ([7]; Fluorofolin 0.00405914 uM): 0.5491 | fractional initial velocity ([7]; Fluorofolin 0.00608766 uM): 0.1317 | fractional initial velocity ([7]; Fluorofolin 0.00634131 uM): 0.5169 | fractional initial velocity ([7]; Fluorofolin 0.00811828 uM): 0.197 | fractional initial velocity ([7]; Fluorofolin 0.0121753 uM): 0.07555 | fractional initial velocity ([7]; Fluorofolin 0.0126826 uM): 0.0002002 | fractional initial velocity ([7]; Fluorofolin 0.0162366 uM): 0.3634 | fractional initial velocity ([7]; Fluorofolin 0.0253653 uM): 0.0004461 | fractional initial velocity ([7]; Fluorofolin 0.0324731 uM): -0.0327 | rescue of growth inhibition by TMI supplementation [8]: could also be rescued from fluorofolin growth inhibition by TMI supplementation | MIC [9]: 0.4 µg/mL | MIC [10]: 0.312 µg/mL
